Values quoted from earlier work in patent US20220054615A1 (priority 2018, published 2022).

Experiments:
[1] = system: human peripheral blood mononuclear cells (PBMCs)
IgG2a = conditions: mouse, in vivo

CCCCCCCCCCCC(=O)CC(=O)N[C@H](COCC[C@@H](CCCCCCC)OC(=O)CCCCCCCCCCC)COP(=O)([O-])OCCNC(=O)NCCOP(=O)([O-])OC[C@@H](COCC[C@@H](CCCCCCC)OC(=O)CCCCCCCCCCC)NC(=O)CC(=O)CCCCCCCCCCC.[Na+].[Na+] [E6020, dodecanoic acid, (1R,6R, 22R, 27R)-1,27-dihexyl-9,19-dihydroxy-9,19-dioxido-14-oxo-6,22-bis [(1,3-di oxotetradecyl)amino]-4,8,10, 18, 20, 24-hexaoxa-13,15-di aza-9,19-dephosphaheptacosane-1,27-diyl ester, disodium salt]
enhance: GM-CSF, IL-1, IL-6 and TNF-α [1] | GM-CSF, IL-1, IL-6 and TNF-α (mouse spleen) | IgG2a (IgG2a)
